Experimental data: paper PMC12289066, “Identification of glutathione transferase (GST P1) inhibitors via a high-throughput screening assay and implications as alternative treatment options for breast cancers” (PLOS One, 2025)
Like-named read-outs stand apart in the source and are kept apart here.

Key:
MCF-7 cells = experiment: MTT cytotoxicity assay, MCF-7; assay type: cell-based, human; conditions: MTT, 72 h incubation, read-out: IC50 (average ± standard deviation) MCF-7
Description: (§1) L929, MCF-7, and MDA-MB-231 cell lines were cultured in DMEM GlutaMAX media containing 10% heat-inactivated FBS and 1% (v/v) penicillin-streptomycin at 37°C and CO2 (5%). Cytotoxicity was determined using a 3-(4,5-dimethyl 2-thiazolyl)-2,5-diphenyl-2H-tetrazolium bromide (MTT) assay. 100 μL aliquots and approximately 50’000 cells/well were added to each well of flat-bottomed 96-well plates and incubated for 24 h in a humidified chamber at 37°C under saturated air with a 5% CO2 atmosphere. Stock solutions of 10 mM drug compounds were prepared in DMSO and were sequentially diluted with the cell culture buffer to give a final DMSO concentration of 0.5%. The solutions were added to the 96-well plates in 100 μL aliquots and 100 μL of buffer was added as a control to give a final drug compound concentration range of 0 − 100 μM. The plates were incubated for a further 72 h under the same conditions as before. MTT (10 μL, 5 mg/mL in Dulbecco’s phosphate-buffered saline) was added to each well and the plates were incubated for a further 3 h under the same conditions as before. The culture medium was aspirated from each well and the purple formazan crystals, formed by the mitochondrial dehydrogenase activity of vital cells, were dissolved in 100 μL DMSO. The absorbance of the resulting solutions was measured at 570 and 630 nm using a SpectraMax M5e multimode microplate reader and SoftMax Pro software, version 6.2.2. As the absorbance is directly proportional to the number of surviving cells, the percentage of surviving cells was calculated from the absorbance of wells relative to the control. The reported IC50 values are based on the mean from four independent experiments, each comprising three replicates per concentration.

L929 cells = experiment: MTT cytotoxicity assay, L929; assay type: cell-based, mouse; conditions: MTT, 72 h incubation, read-out: IC50 (average ± standard deviation) L929
Description: as §1, with “Cytotoxicity” for “L929, MCF-7, and MDA-MB-231 cell lines were cultured in DMEM GlutaMAX media containing 10% heat-inactivated FBS and 1% (v/v) penicillin-streptomycin at 37°C and CO2 (5%). Cytotoxicity”, “Stock solutions of 10 mM drug compounds were prepared in DMSO and were sequentially diluted with the cell culture buffer to give a final DMSO concentration of 0.5%. The solutions were added to the 96-well plates in 100 μL aliquots and 100 μL of buffer was added as a control to give a final drug compound concentration range of 0 − 100 μM.” left out

MDA-MB-231 cells = experiment: MTT cytotoxicity assay, MDA-MB-231; assay type: cell-based, human; conditions: MTT, 72 h incubation, read-out: IC50 (average ± standard deviation) MDA-MB-231
Description: as §1

GST P1-1 [1] = biological target: T1, GST P1-1 (Homo sapiens, UniProt P09211); experiment: High-throughput GST P1-1 inhibition assay (384-well screen, CDNB/GSH); assay type: biochemical; conditions: compound 10 μM; score 0 = negative control (DMSO), 1 = positive control (EA 50 μM); average of duplicate
T1 construct: purchased Sigma-Aldrich
T1 sequence (P09211 2-210 limits assumed): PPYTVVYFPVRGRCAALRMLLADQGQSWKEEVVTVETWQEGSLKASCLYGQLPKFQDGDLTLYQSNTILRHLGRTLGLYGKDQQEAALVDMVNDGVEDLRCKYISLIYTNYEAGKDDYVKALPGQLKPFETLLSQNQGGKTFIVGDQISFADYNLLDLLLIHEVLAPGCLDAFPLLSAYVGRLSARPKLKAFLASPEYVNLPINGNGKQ
Description: (§2) Each drug compound was added to the respective well at a volume of 80 nL of 10 mM stock solution in DMSO, yielding a final compound concentration of 10 μM and a final DMSO concentration of 0.1%. Each plate’s first and last two columns were used as negative (no compound added – 80 nL per well of DMSO) and positive (80 nL of EA added with a final concentration of 50 μM) controls, respectively. The Gyger Certus Flex dispenser was set up using a freshly prepared 1 mM of GSH and 20 nM of GST P1-1, pH 7.4, in one syringe and 8 mM CDNB solution in pure ethanol in the other syringe. Into each well 80 μL of GST-GSH solution was dispensed and incubated at 25°C for 20 minutes before the reaction was initiated by the addition of 4 μL of CDNB solution. The plates were incubated for 2 h in the dark at 25°C and then the absorbance was of each well recorded on a BioTek Synergy NEO HTS multimode plate reader (Agilent®) at a wavelength of 340 nm.
The z’factor was calculated for each plate according to Zhang et al.. The Z-factor is a dimensionless, simple statistical characteristic for each HTS assay. This provides a valuable tool for the comparison and assessment of the quality of assays, and can be utilized in assay optimization and validation. For each plate, the concentration of product was normalized by assigning a score of 0 (0%) to the negative control (average of maximal concentration of product measured in the presence of enzyme without any inhibitor) and a score of 1 (100%) was assigned to the positive control (average minimal concentration of product measured in the presence of enzyme with the reference inhibitor, i.e., EA). The experiment was performed in duplicate and the score for each drug compound was calculated as an average ± standard deviation. […] An internal laboratory information management system (LIMS) was used for basic data processing, management, visualization, and statistical hit validation.

GST P1-1 [2] = biological target: T1, GST P1-1; experiment: Determination of IC50 for GST P1-1 enzyme (dose-response / reconfirmation assay); assay type: biochemical
Description: as §2
The IC50 of the GST P1-1 enzyme was determined for the 80 drug compounds with the highest score in the GST P1-1 screening assay. The assay conditions were used for the screening assay and each drug compound was tested at 8 different concentrations (μM) starting at 30 µM final assay concentration with a half-log dilution and 2 replicates per concentration.

[3] = Table 2, rounded values, read-out: IC50 GSTP1 enzymatic reaction
[4] = reconfirmation assay, Table S2, read-out: IC50 GSTP1

C=C(CC)C(=O)c1ccc(OCC(=O)O)c(Cl)c1Cl [Ethacrynic acid, EA, Ethacrynic acid]
IC50 (MCF-7 cells; Homo sapiens, MCF7): 13 ± 1 µM
IC50 (L929 cells; Mus musculus, L929): > 100 µM
IC50 (MDA-MB-231 cells; Homo sapiens, MDA-MB-231): 14 ± 1 µM

N#Cc1c(-c2ccccc2)cc(-c2cc(Br)ccc2O)[nH]c1=O [TCS PIM-1 1]
Score (GST P1-1 [1]): 0.813
IC50 (GST P1-1 [2]; [3]): 2.2 µM
Hill Slope (dose-response curve) (GST P1-1 [2]; reconfirmation assay): 2.5
IC50 (GST P1-1 [2]; [4]): 2.15 µM
IC50 (MCF-7 cells): 74 ± 4 µM
IC50 (L929 cells): 36 ± 3 µM
IC50 (MDA-MB-231 cells): > 100 µM

O=C(O)c1ccc(S(=O)(=O)N(Cc2ccc(OC(F)(F)F)cc2)c2ncc(C(F)(F)F)cc2Cl)cc1 [RQ-00203078]
Score (GST P1-1 [1]): 0.697
IC50 (GST P1-1 [2]; [3]): 3.1 µM
Hill Slope (dose-response curve) (GST P1-1 [2]; reconfirmation assay): 1.6
IC50 (MCF-7 cells): 17 ± 2 µM
IC50 (L929 cells): 42 ± 6 µM
IC50 (MDA-MB-231 cells): 51 ± 6 µM

Cl.O=C(O)Cc1cccc(OCCCN(Cc2cccc(C(F)(F)F)c2Cl)CC(c2ccccc2)c2ccccc2)c1 [GW3965 (hydrochloride)]
Score (GST P1-1 [1]): 1.027
IC50 (GST P1-1 [2]; [3]): 0.4 µM
Hill Slope (dose-response curve) (GST P1-1 [2]; reconfirmation assay): 2.48
IC50 (GST P1-1 [2]; [4]): 0.43 µM
IC50 (MCF-7 cells): 25 ± 1 µM
IC50 (L929 cells): 24 ± 2 µM
IC50 (MDA-MB-231 cells): 54 ± 1 µM

CC(C)(C)C(=O)CN1C(=O)[C@H](NC(=O)Nc2cccc(C(=O)O)c2)CN(C2CCCCC2)c2ccccc21 [Nastorazepide]
Score (GST P1-1 [1]): 0.958
IC50 (GST P1-1 [2]; [3]): 3.3 µM
Hill Slope (dose-response curve) (GST P1-1 [2]; reconfirmation assay): 10.6
IC50 (MCF-7 cells): > 100 µM
IC50 (L929 cells): > 100 µM
IC50 (MDA-MB-231 cells): > 100 µM

PSB 06126
Score (GST P1-1 [1]): 0.962
IC50 (GST P1-1 [2]; [3]): 0.3 µM
Hill Slope (dose-response curve) (GST P1-1 [2]; reconfirmation assay): 3.4
IC50 (GST P1-1 [2]; [4]): 0.29 µM
IC50 (MCF-7 cells): 45 ± 3 µM
IC50 (L929 cells): 39 ± 4 µM
IC50 (MDA-MB-231 cells): > 100 µM

Cc1cc(=O)n(-c2ccccc2)[nH]1 [5-Methyl-2-phenyl-1,2-dihydropyrazol-3-one]
IC50 (GST P1-1 [2]; [3]): 0.8 µM
Hill Slope (dose-response curve) (GST P1-1 [2]; reconfirmation assay): 0.8
IC50 (GST P1-1 [2]; [4]): 0.83 µM
IC50 (MCF-7 cells; Homo sapiens, MCF7): > 100 µM
IC50 (L929 cells; Mus musculus, L929): > 100 µM
IC50 (MDA-MB-231 cells; Homo sapiens, MDA-MB-231): > 100 µM

Oc1c(Cl)cc(Cl)c(Cl)c1Cc1c(O)c(Cl)cc(Cl)c1Cl [Hexachlorophene]
Score (GST P1-1 [1]): 1.077
IC50 (GST P1-1 [2]; [3]): 0.4 µM
Hill Slope (dose-response curve) (GST P1-1 [2]; reconfirmation assay): 2.2
IC50 (GST P1-1 [2]; [4]): 0.42 µM
IC50 (MCF-7 cells; Homo sapiens, MCF7): 14 ± 1 µM
IC50 (L929 cells; Mus musculus, L929): 11 ± 1 µM
IC50 (MDA-MB-231 cells; Homo sapiens, MDA-MB-231): 9 ± 1 µM

O=C(O)c1cc(N2N=C(C(F)(F)F)/C(=C/c3ccc(-c4ccccc4)o3)C2=O)ccc1Cl [en460]
Score (GST P1-1 [1]): 0.837
IC50 (GST P1-1 [2]; [3]): 1.1 µM
Hill Slope (dose-response curve) (GST P1-1 [2]; reconfirmation assay): 1.4
IC50 (MCF-7 cells): 10 ± 1 µM
IC50 (L929 cells): 18 ± 2 µM
IC50 (MDA-MB-231 cells): 19 ± 1 µM

Oc1ccc(Nc2nc(-c3ccc(Cl)cc3)cs2)cc1 [SKI II]
Score (GST P1-1 [1]): 0.694

NC[C@@](O)(c1ccc(Cl)cc1)c1ccc(-c2cn[nH]c2)cc1 [AT13148]
Score (GST P1-1 [1]): 0.738

C=CC1=C(C)c2cc3[nH]c(cc4nc(cc5[nH]c(cc1n2)c(C)c5CCC(=O)O)C(CCC(=O)O)=C4C)c(C)c3C=C [Protoporphyrin IX]
Score (GST P1-1 [1]): 0.914

CCOC(=O)Nc1cc(-c2ccc(C)c(NS(C)(=O)=O)c2)nn2c(C)nnc12 [Bromosporine]
Score (GST P1-1 [1]): 0.801

CC1(C)CCC(C)(C)c2cc(Cn3cccn3)c(/C=C/c3ccc(C(=O)O)cc3)cc21 [Palovarotene]
Score (GST P1-1 [1]): 0.763

CC1=C(/C=C/C(=C/C=C/C(C)=C/C(=O)O)c2ccc(C)cc2)C(C)(C)CCC1 [SR-11302]
Score (GST P1-1 [1]): 0.733

O=C(O)c1ccc(-c2ccc3cc(O)c(C45CC6CC(CC(C6)C4)C5)cc3c2)cc1 [CD-1530]
Score (GST P1-1 [1]): 0.979

COc1cc(C[C@H](C)[C@H](C)Cc2ccc3c(c2)OCO3)ccc1O [Macelignan]
Score (GST P1-1 [1]): 0.803

CCN(CC)c1ccc(C(=C2C=CC(=[N+](CC)CC)C=C2)c2ccccc2)cc1 [Brilliant-green]
Score (GST P1-1 [1]): 0.783

O=C([O-])c1ccccc1-c1c2cc(Br)c(=O)cc-2oc2[c]([Hg+])c([O-])c(Br)cc12.[Na+].[Na+].[OH-] [Merbromin]
Score (GST P1-1 [1]): 0.993

O=C1C=Cc2cc(Br)ccc2C1=O [Bonaphthone]
Score (GST P1-1 [1]): 0.770

O=C(Nc1ccc(Cl)cc1)Nc1ccc(Cl)c(Cl)c1 [Triclocarban]
Score (GST P1-1 [1]): 0.702

Cc1cc(F)c(Nc2ncnc3cc(OCc4ccccc4)ccc23)cc1O.Cl [ZM323881 (hydrochloride)]
Score (GST P1-1 [1]): 0.946

Cc1c(S(=O)(=O)O)oc2c1C(=O)C(=O)c1c-2ccc2c1CCCC2(C)C [Tanshinone IIA sulfonate (sodium), Tanshinone IIA sulfonate]
Score (GST P1-1 [1]): 0.981

Oc1cccc(-c2c3nc(c(-c4cccc(O)c4)c4ccc([nH]4)c(-c4cccc(O)c4)c4nc(c(-c5cccc(O)c5)c5ccc2[nH]5)CC4)C=C3)c1 [Temoporfin]
Score (GST P1-1 [1]): 0.699

TC-I-2000
Score (GST P1-1 [1]): 0.729

O=C1C(CC[S+]([O-])c2ccccc2)C(=O)N(c2ccccc2)N1c1ccccc1 (stereo not drawn) [Sulfinpyrazone]
Score (GST P1-1 [1]): 0.823

C=CC(=O)c1ccc2ccccc2c1 [JAK3-inhibitor-V]
Score (GST P1-1 [1]): 0.817

COc1cc(-c2ccc(N=Nc3ccc4c(S(=O)(=O)[O-])cc(S(=O)(=O)[O-])c(N)c4c3O)c(OC)c2)ccc1N=Nc1ccc2c(S(=O)(=O)[O-])cc(S(=O)(=O)[O-])c(N)c2c1O.[Na+].[Na+].[Na+].[Na+] [Chicago sky blue 6B]
Score (GST P1-1 [1]): 0.863

CCCCCCCCCCCCc1ccc(S(=O)(=O)Nc2nncs2)cc1 [PHT-427]
Score (GST P1-1 [1]): 0.696

O=[N+]([O-])/C=C/c1ccc2c(c1)OCO2 [MNS]
Score (GST P1-1 [1]): 0.850

Cc1cc(=O)n(-c2ccccc2)[nH]1 [N-demethylantipyrine]
Score (GST P1-1 [1]): 1.019

Oc1ccc2ccccc2c1SSc1c(O)ccc2ccccc12 [IPA-3]
Score (GST P1-1 [1]): 0.881

C=CC(=O)c1ccc2ccccc2c1 [ZM 449829]
IC50 (GST P1-1 [2]; [3]): 1.4 µM
Hill Slope (dose-response curve) (GST P1-1 [2]; reconfirmation assay): 1.3
IC50 (MCF-7 cells): 6.8 ± 0.2 µM
IC50 (L929 cells): 8.1 ± 0.4 µM
IC50 (MDA-MB-231 cells): 10.3 ± 0.2 µM

O=C1c2c(O)cccc2Cc2cccc(O)c21 [Anthralin]
Score (GST P1-1 [1]): 0.694

CC(C)c1cccc2c(-c3ccccc3)cc(-c3ccc(-c4ccc(C(=O)O)cc4)[nH]3)nc12 [ER-50891]
Score (GST P1-1 [1]): 0.927

AS-2034178
Score (GST P1-1 [1]): 0.982

O=C(O)C1(c2ccc(-c3ccc(Cl)c(Cl)c3)c(F)c2)CC1 [CHF5074]
Score (GST P1-1 [1]): 0.911
